# Reference: patent publication US20240148757A1, “USE OF DIHYDROOROTATE DEHYDROGENASE (DHODH) INHIBITORS TO TARGET FERROPTOSIS IN CANCER THERAPY” (BOARD OF REGENTS, THE UNIVERSITY OF TEXAS SYSTEM, priority 2021, published 2024)
# How the values were obtained:
# Format in all cases: cell-based, human
# GPX4^low NCI-H226 cells = assay: Cell viability / cell death (ferroptosis) in NCI-H226 cells; settings: BQR; pretreatment Lip-1 or ZVF 10 μM, 24 hours
# Protocol: (§1) Viable cells were measured using Cell Counting Kit-8 (CCK-8, Dojindo) as previously described (Koppula, P., Zhang, Y., Shi, J., Li, W. & Gan, B, J Biol Chem 292, 14240-14249 (2017); Liu, X. & Gan, B, Cell Cycle 15, 3471-3481 (2016)). Briefly, cells were seeded onto 96-well plates at a density of 2×10^4 per well. The next day, cells were treated with GPX4 or DHODH inhibitors for 4 hours. Subsequently, cells exposed to 10 μl CCK-8 reagent (100 μl medium per well) for 1 hour at 37° C., 5% CO2 in an incubator. The absorbance at a wavelength of 450 nm was determined using a FLUOstar Omega microplate reader (BMG Labtech).
# (§2) Cell death was measured by propidium iodide (Roche) staining using a flow cytometer, as previously described (Dai, F., et al., Proc Natl Acad Sci USA 114, 3192-3197 (2017); Zhang, Y., et al., Cancer Res 80, 2243-2256 (2020)). For propidium iodide-staining, cells were seeded at a density of 50% confluence into 12-well plates. The next day, cells were treated with different reagents. To measure cell death, the cells were collected (including floating dead cells), stained with 5 μg/ml propidium iodide and the percentage of the propidium iodide-positive dead cell population was analyzed using the flow cytometer BD Accuri C6 (BD Biosciences) and an FL2 detector. A minimum of 10,000 single cells were analyzed per well and all experiments were carried out at least in triplicate.
# GPX4^high HT-1080 cells = assay: Cell viability / cell death (ferroptosis) in HT-1080 cells; settings: 24 hours
# In short: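 HT-1080 cells were exposed to GPX4 or DHODH inhibitors for 4 h, and viability was then read by CCK-8 absorbance at 450 nm after 1 h at 37 °C. Separately, cell death was scored as the propidium iodide-positive fraction (5 μg/ml) by flow cytometry, ≥10,000 cells per well.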
# DHODH KO HT-1080 cells = assay: Cell viability / cell death (ferroptosis) in DHODH KO HT-1080 cells; settings: DHODH KO; pretreatment 10 μM, 24 hours
# Protocol: Knockout of DHODH, ACSL4 and COQ2 in human cell lines was performed using single guide RNAs (sgRNAs) and doxycycline (DOX)-inducible CRISPR-Cas9 expression system as described in our recent publication (Lee, H., et al., Nature cell biology 22, 225-234 (2020)). sgRNAs were cloned into the lentiviral lentiGuide vector. LentiGuide clones were transfected into HEK293T cells with psPAX2 packaging plasmid and pMD2.G expressing plasmid. Cells were infected with lentivirus with 0.8 μg/ml polybrene, selected with puromycin (1 μg/ml, InvivoGen), blasticidin (2 μg/ml, InvivoGen) or hygromycin B (2 μg/ml, InvivoGen) for 3 days and then single cells were sorted into 96-well plates. Single cells were maintained in DMEM with 10% (v/v) FBS and 1% (v/v) penicillin/streptomycin at 37° C. in an incubator with 20% O2 and 5% CO2 for 3-4 weeks and each colony was verified by western blot to confirm the target gene deletion. To generate cell lines with DOX-inducible CRISPR-Cas9-mediated gene deletion, cells were infected with lentivirus, selected with puromycin (1 μg/ml, InvivoGen), blasticidin (2 μg/ml, InvivoGen) or hygromycin B (2 μg/ml, InvivoGen) for 2 days and then single cells were sorted into 96-well plates. Once cell lines were established, 1 μg/ml of DOX (Sigma-Aldrich) was added to the media to induce target gene deletion for 48 hours after selection; then cells were cultured in DOX-free media for subsequent analyses.
# as §1, §2
# [1] = test system: GPX4 knockdown HT-1080 cells with DHODH deletion; assay: Lipid peroxidation and ferroptosis in DHODH KO, GPX4 knockdown HT-1080 cells
# Protocol: Knockout of DHODH, ACSL4 and COQ2 in human cell lines was performed using single guide RNAs (sgRNAs) and doxycycline (DOX)-inducible CRISPR-Cas9 expression system as described in our recent publication (Lee, H., et al., Nature cell biology 22, 225-234 (2020)). sgRNAs were cloned into the lentiviral lentiGuide vector. LentiGuide clones were transfected into HEK293T cells with psPAX2 packaging plasmid and pMD2.G expressing plasmid. Cells were infected with lentivirus with 0.8 μg/ml polybrene, selected with puromycin (1 μg/ml, InvivoGen), blasticidin (2 μg/ml, InvivoGen) or hygromycin B (2 μg/ml, InvivoGen) for 3 days and then single cells were sorted into 96-well plates. […]
# Cells were seeded on 12-well plates and incubated overnight. […] Lipid peroxidation was assessed using the flow cytometer BD Accuri C6 with a 488 nm laser on an FL1 detector. A minimum of 10,000 single cells were analyzed per well.
# Cell death was measured by propidium iodide (Roche) staining using a flow cytometer, as previously described (Dai, F., et al., Proc Natl Acad Sci USA 114, 3192-3197 (2017); Zhang, Y., et al., Cancer Res 80, 2243-2256 (2020)). […] A minimum of 10,000 single cells were analyzed per well and all experiments were carried out at least in triplicate.
smiles,measurement,setting,value
Clc1cccc(CN=C2Nc3ccccc3NC23CCNCC3)c1 [liproxstatin-1],rescue of DHODH inhibition-induced cell death,GPX4^low NCI-H226 cells,largely rescued
same,rescue of DHODH inhibition-induced cell death,"GPX4^high HT-1080 cells; BQR, pretreatment Lip-1 or ZVF 10 μM",the opposite was observed
same,protection against GPX4 inhibition (RSL3 or ML162)-induced ferroptosis,"GPX4^high HT-1080 cells; DHODH WT, pretreatment 10 μM",rescued
same,protection against GPX4 inhibition (RSL3 or ML162)-induced ferroptosis,DHODH KO HT-1080 cells,rescued
same,rescue of lipid peroxidation and ferroptosis,[1],could be rescued
